# Test results from ChEMBL document CHEMBL3507680, “University of Dundee, Gates Library screen for HepG2 cell viability”.
# Assay: Human HepG2 cell viability assay in 384 well format
# Assay type: toxicity, cell-based
# Parameters: dose 125 nL, time 70.5 hour; concentration not given beside the values
# Conditions: HepG2 cells, read-out: Inhibition
row,SMILES,cytotoxicity at 70.5 h
1,CC(C)Cc1nc(CS(C)(=O)=O)n(-c2ccccn2)n1,-7.54%
2,CCN1C(=O)C[C@@H]2[C@@H]1CCN2S(=O)(=O)Cc1ccc(C)cc1,1.97%
3,COc1cccc(-n2c(C)cc(C(=O)NS(C)(=O)=O)c2C)c1,-1.93%
4,CCN(Cc1ccoc1)C(=O)c1cc(C)c(C)c(S(N)(=O)=O)c1,-9.16%
5,CCc1nnc2n1CC(CNCc1nc(C)c(C)o1)CC2 (stereo not given),-2.88%
6,COCCN(Cc1ccccc1)C(=O)c1cnn(C)c1C,-8.55%
7,Cc1nonc1CN(C)Cc1nc(-c2cccc(F)c2F)oc1C,-7.8%
8,O=C(NCCN1CCOCC1)N(Cc1ccoc1)C1CCCCC1,1.39%
9,CNC(=O)CCc1cccc(OC2CCCC2)c1,-12.2%
10,CC(=O)Nc1ccc(CCC2(NC(=O)C3CCCO3)CCCCC2)cn1 (stereo not given),-0.834%
11,CC(C)[C@H](NC(=O)N1CCC(Cc2ccccc2)CC1)C(=O)O,-8.02%
12,CNC(=O)N1C[C@H]2C[C@H](C(=O)NCc3cccnc3)[C@@H](C1)O2,-4.91%
13,CC1CCN(CC2CCN(C(=O)c3c[nH]c4ncccc34)CC2)CC1,-19.4%
14,Cc1ccc(C(=O)NS(=O)(=O)c2cccc3cnccc23)c(=O)[nH]1,-6.04%
15,CCCN1CCN(C(=O)c2cccc3cccnc23)[C@H]2CS(=O)(=O)C[C@H]21,25.6%
16,c1cc(-c2ccc3nc(C4CCN(CC5CC5)CC4)nn3c2)ccn1,3.64%
17,CC(C)Cc1cc(NC(=O)c2ccccc2)n(C)n1,-15.4%
18,O=C(C1CCCO1)N1CCC2(CC1)CNCCO2 (stereo not given),9.56%
19,CCOCCN1CCN(Cc2cccc(C(=O)N(C)C)c2)CC1C (stereo not given),-9.62%
20,CN(C)C1CCN(C(=O)c2cccc(S(=O)(=O)NCC3(C)COC3)c2)C1 (stereo not given),-9.11%
21,CCC(C)N(Cc1cc(C)n[nH]1)Cc1ccccc1Cl (stereo not given),-10.8%
22,O=C(NCCCOCC1CCCO1)c1cccnc1N1CCCC1 (stereo not given),1.79%
23,CCN(CC1CCOC1)S(=O)(=O)Cc1ccccc1Cl (stereo not given),-6.21%
24,COc1ccccc1CN1CC[C@]2(C[C@@H](OCC(=O)N(C)C)CO2)C1,-3.75%
25,Cc1ccc(OC2(C(=O)NC(C)Cc3ccncc3)CCNCC2)cc1 (stereo not given),-6.8%
26,O=C(c1ccccc1O)N1CCn2c(nnc2C(F)(F)F)C1,-1.13%
27,CC(C)c1ocnc1C(=O)NC1(c2cccc(F)c2)CCOCC1,-3.27%

row,SMILES,cytotoxicity at 70.5 h
1,Cc1nc(C)c(C(=O)NCCNC(=O)Cc2ccccc2)s1,-1.65%
2,Cc1oc2c(c1C(=O)N1C[C@H](O)[C@]3(CCCO3)C1)CCCC2,-3.22%
3,CCOc1ccnc(N2CCN(C(=O)CCc3ccncc3)CC2)n1,0.226%
4,CCCOCC(=O)NS(=O)(=O)c1ccc2c(c1)OCCO2,-0.678%
5,CN1CCN(C(=O)Cc2csc(-c3ccsc3)n2)C(c2ccccc2)C1 (stereo not given),-3.75%
6,O=C(C1CC(=O)N(c2ccccc2Br)C1)N1CCC2(CC1)OCCO2 (stereo not given),-6.47%
7,O=C1N(C2CCCCC2)CCCC12CCN(S(=O)(=O)c1cccnc1)C2 (stereo not given),-5.02%
8,CN(C)C(=O)CCC[S+]([O-])Cc1ccc(F)c(F)c1 (stereo not given),13.1%
9,C=C(C)CN1CCC(NC(=O)NCCc2cccc(C(N)=O)c2)CC1,-3.95%
10,Cn1cnnc1S(=O)(=O)C1CCN(C(=O)c2cccs2)CC1,-10.5%
11,CCNc1cc2c(nn1)CCN(C(=O)C1Cc3ccccc3S1)C2 (stereo not given),-6.84%
12,Cc1nc(CN2CCn3cc(CNC(=O)C4CCC4)nc3C2)cs1,14%
13,Cc1nnc([C@H]2C[C@H]3OCC[C@H]3N(S(=O)(=O)N(C)C)C2)o1,-3.65%
14,CN(c1ccc(C(=O)NCCCN2CCCCC2)c(Cl)c1)S(C)(=O)=O,-2.79%
15,COc1cccc([C@@H]2CN(C(=O)c3ccc(C)cc3O)C[C@H]2C(=O)O)c1,-5.65%
16,Cn1cc(N2C(=O)CC[C@@H]3[C@H]2CCN3C(=O)c2cscn2)cn1,-10.2%
17,Cc1n[nH]c(C)c1C(N)C(=O)NCCc1csc(C(C)C)n1 (stereo not given),-11.3%
18,OCCOc1ccc(NCc2cc(F)cc3cccnc23)cn1,-9.9%
19,c1ccc(-c2noc(C3CCN(CCn4cccn4)CC3)n2)cc1,12.8%
20,CN1CCN(C(=O)c2[nH]nnc2Nc2ccccc2F)CC1,-14.3%
21,CC(C)c1nccn1C1CCCN(C(=O)c2ccc3[nH]cnc3c2)C1 (stereo not given),8.82%
22,CC(C)c1ccc(CN2CCCC3(CC2)CN(C)C(=O)O3)cc1 (stereo not given),-1.93%
23,CN(C)CC(=O)N1C[C@H]2CCC[C@@]2(COc2ccccn2)C1,-16.4%
24,CCn1cnnc1CNC(=O)NCC(C(C)C)N1CCOCC1 (stereo not given),-13%
25,Cn1nc2c(cc1=O)CN(Cc1nc(-c3cccnc3)no1)CC2,-3.78%
26,O=C(NCCc1cccc(F)c1)NCC(O)c1cccc(F)c1 (stereo not given),-5.32%
27,O=C1CC2(CCN(Cc3ncc[nH]3)CC2)CN1Cc1ccc(Cl)cc1,-2.21%

row,SMILES,cytotoxicity at 70.5 h
1,O=S(=O)(CC1CCOCC1)NCc1ncc(-c2ccccc2)o1,-5.19%
2,COCC(=O)N1CCCC(c2nc(N(C)C)ncc2-c2ccccc2)C1 (stereo not given),4.41%
3,O=C1CC2(CCN(Cc3ccc(C(F)(F)F)nc3)CC2)CN1,8.74%
4,Cc1cc(Oc2ccccc2)nc(C2CCCCN2)n1 (stereo not given),13.4%
5,CN(C)C[C@H]1C[C@@H]2CN(Cc3ccco3)C[C@@H]2O1,-16.1%
6,COc1ccc(-n2ccc(C(=O)NCCN3CCC(C)CC3)n2)cc1,-5.24%
7,COCCC(=O)N1CCC(c2nnc(-c3ccsc3)o2)CC1,-6.73%
8,CN1C(=O)C2(CCCN(C(=O)c3cccnc3O)C2)c2ccccc21 (stereo not given),21%
9,NC(=O)C1CCN(C(=O)c2ccn(-c3cccc(F)c3)n2)C1 (stereo not given),-19.8%
10,COc1ccc2[nH]cc(C3CCN(CCC(N)=O)CC3)c2c1,-11.2%
11,Cc1ccccc1CN1CCN(Cc2nccn2C)CC1,-8.12%
12,CN(C)CCOCC1CN(C(=O)c2cccnc2)Cc2ccnn2C1 (stereo not given),-6.34%
13,CC(C)C(=O)Nc1ccc2c(c1)ncn2CC(=O)NCCN(C)C,-7%
14,COc1cc(CC2CC(c3ccc4c(c3)OCO4)=NO2)cc2c1OCO2 (stereo not given),-9.64%
15,COc1c(C2CCCN2C(=O)c2sc(C)nc2C)c(C)nn1C (stereo not given),10.6%
16,COCC(=O)NC[C@H]1CC[C@H](c2ccnc3ncnn32)CC1,-8.99%
17,CC(Cn1cncn1)NC1CCN(Cc2cccc(O)c2)CC1 (stereo not given),-2.81%
18,CNS(=O)(=O)c1ccc(CNC(=O)c2cc(C)no2)cc1,-11.9%
19,CCOCCOC(C)C(=O)Nc1ccc2[nH]c(C)cc2c1 (stereo not given),-8.04%
20,CCn1nc2c(cc1=O)CN(CC(=O)Nc1nc(C)c(C)s1)CC2,-13.9%
21,CCC(=O)NCCNC(=O)c1nn(C)c(C)c1Cl,-11.9%
22,COCCC(=O)N1Cc2[nH]nc(COc3cccnc3)c2C1,-13.5%
23,CC(C)c1nc(CN2CCN(C(C)c3nc(C4CC4)no3)CC2)no1 (stereo not given),-4.05%
24,CCc1nc(NC(=O)Cc2csc(-c3nnc[nH]3)n2)sc1C,-11.9%
25,CN(C)c1cncc(-c2ccnc3c2ccn3C)n1,-0.942%
26,CCNC(=O)Cc1n[nH]c(-c2cncc(Br)c2)n1,32%
